This experiment concerns the target EZH1 (Homo sapiens, UniProt Q92800). The experiment in a line: histone methyltransferase selectivity assay. The format is biochemical.

Molecules are shown by their SMILES. pKi: −log10 of the molar value.

Sequence of EZH1 (Q92800 whole entry): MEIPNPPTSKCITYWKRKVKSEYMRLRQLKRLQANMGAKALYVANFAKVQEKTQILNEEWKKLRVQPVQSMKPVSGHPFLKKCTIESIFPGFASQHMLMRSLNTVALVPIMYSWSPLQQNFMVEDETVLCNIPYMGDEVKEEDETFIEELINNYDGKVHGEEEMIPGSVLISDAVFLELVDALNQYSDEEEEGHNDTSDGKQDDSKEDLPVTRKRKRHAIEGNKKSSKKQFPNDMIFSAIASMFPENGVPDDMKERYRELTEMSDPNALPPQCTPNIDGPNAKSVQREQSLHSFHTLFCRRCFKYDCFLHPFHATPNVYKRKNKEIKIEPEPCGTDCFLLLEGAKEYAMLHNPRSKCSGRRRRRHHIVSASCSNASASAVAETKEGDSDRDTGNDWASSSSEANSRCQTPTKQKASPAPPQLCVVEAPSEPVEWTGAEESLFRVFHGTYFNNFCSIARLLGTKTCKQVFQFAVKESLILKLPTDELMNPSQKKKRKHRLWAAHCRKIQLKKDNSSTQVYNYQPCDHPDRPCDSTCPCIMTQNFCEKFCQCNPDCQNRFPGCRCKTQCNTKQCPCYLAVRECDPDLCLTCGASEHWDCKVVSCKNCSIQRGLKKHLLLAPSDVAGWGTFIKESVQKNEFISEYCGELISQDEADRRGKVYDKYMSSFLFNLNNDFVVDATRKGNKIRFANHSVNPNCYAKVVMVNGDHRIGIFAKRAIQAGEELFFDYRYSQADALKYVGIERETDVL
Sequence of EZH1 (O75530 2-441 partner): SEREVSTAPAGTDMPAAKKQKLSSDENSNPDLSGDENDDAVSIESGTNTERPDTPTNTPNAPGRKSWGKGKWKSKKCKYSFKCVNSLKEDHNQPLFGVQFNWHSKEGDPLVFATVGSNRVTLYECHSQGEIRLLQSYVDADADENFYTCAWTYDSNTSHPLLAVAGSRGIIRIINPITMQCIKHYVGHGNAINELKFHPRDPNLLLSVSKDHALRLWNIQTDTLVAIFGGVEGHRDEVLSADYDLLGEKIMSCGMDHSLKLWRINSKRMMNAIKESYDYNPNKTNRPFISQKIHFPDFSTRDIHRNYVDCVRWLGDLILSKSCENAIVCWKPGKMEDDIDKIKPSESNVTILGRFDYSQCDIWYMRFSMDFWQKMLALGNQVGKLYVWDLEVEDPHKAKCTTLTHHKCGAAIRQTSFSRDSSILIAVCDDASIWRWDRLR
Sequence of EZH1 (Q15022 whole entry partner): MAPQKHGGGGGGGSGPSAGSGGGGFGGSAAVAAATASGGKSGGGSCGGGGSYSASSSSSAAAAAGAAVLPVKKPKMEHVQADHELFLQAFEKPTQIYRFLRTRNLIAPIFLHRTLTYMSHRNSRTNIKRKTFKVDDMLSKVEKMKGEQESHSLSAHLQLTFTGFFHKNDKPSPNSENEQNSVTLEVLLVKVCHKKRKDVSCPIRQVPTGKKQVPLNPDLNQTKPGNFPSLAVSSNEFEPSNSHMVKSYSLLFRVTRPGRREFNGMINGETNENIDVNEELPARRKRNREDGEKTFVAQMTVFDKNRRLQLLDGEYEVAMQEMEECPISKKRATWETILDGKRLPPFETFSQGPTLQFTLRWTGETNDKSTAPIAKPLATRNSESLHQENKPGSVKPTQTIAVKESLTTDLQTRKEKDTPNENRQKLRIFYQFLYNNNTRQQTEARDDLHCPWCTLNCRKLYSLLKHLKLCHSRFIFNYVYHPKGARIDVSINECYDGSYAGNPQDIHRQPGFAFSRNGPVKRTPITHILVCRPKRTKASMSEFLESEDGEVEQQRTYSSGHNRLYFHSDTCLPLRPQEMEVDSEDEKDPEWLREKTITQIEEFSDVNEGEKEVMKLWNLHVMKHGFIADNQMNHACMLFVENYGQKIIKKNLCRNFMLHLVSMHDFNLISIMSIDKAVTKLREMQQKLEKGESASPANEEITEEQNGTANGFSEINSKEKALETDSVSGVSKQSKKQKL

For orientation: pKi means −log10 of the Ki, conventionally taken in molar units. A higher pKi goes with a low Ki. Turning to `Cc1cc(C)c(CNC(=O)c2cc(-c3ccc(N4CCN(C)CC4)nc3)cc3c2c(C)cn3C(C)C)c(=O)[nH]1` [GSK503], the pKi is 6.20.

The values are drawn from article PMC3681809 (Cancer cell, 2013).
